Experimental data from patent US6395766B1, “Tetrahydroindolone derivatives as gabaaalpha5 ligands for enhancing cognition” (Merck Sharp & Dohme Limited, priority 1998, dated 2002).

Structure (SMILES) | melting point
CC1(C)CC(=O)c2c(SCc3ccccc3)cn(-c3ccccn3)c2C1 [Example 14, 6,6-Dimethyl-3(phenylmethyl)thio-1-(pyridin-2-yl)-4,5,6,7-tetrahydroindol-4-one] | 190 to 192 °C
CCc1cn(-c2ccccn2)c2c1C(=O)CC(C)(C)C2 [Example 1, 6,6-Dimethyl 3-Ethyl-1-(pyridin-2-yl)-4,5,6,7-tetrahydroindol-4-one] | 125 to 127 °C
CC1(C)CC(=O)c2c(-c3ccccc3)cn(-c3ccccn3)c2C1 [Example 16, 6,6-Dimethyl-3-phenyl-1-(pyridin-2-yl)-4,5,6,7-tetrahydroindol-4-one] | 160 to 162 °C
CCc1cn(-c2nccs2)c2c1C(=O)CC(C)(C)C2 [Example 5, 6,6-Dimethyl-3-ethyl-1-(thiazol-2-yl)-4,5,6,7-tetrahydroindol-4-one] | 58 to 60 °C
CC1(C)CC(=O)c2c(-c3nccs3)cn(-c3ccccn3)c2C1 [Example 15, 6,6-Dimethyl-1-(pyridin-2-yl)-3-(thiazol-2-yl)-4,5,6,7-tetrahydroindol-4-one] | 166 to 168 °C
CCc1cn(-c2ncccn2)c2c1C(=O)CC(C)(C)C2 [Example 4, 3-Ethyl-6,6-dimethyl-1-(pyrimidin-2-yl)-4,5,6,7-tetrahydroindol-4-one] | 111 to 114 °C
CC1(C)CC(=O)c2c(C(C)(C)C)cn(-c3ccccn3)c2C1 [Example 2, 6,6-Dimethyl-3-(1,1-dimethylethyl)-1-(pyridin-2-yl)-4,5,6,7-tetrahydroindol-4-one] | 143 to 145 °C

Continued, values first:

melting point | Structure (SMILES)
150 to 154 °C | C=Cc1cn(-c2ccccn2)c2c1C(=O)CC(C)(C)C2 [Example 18, 6,6-Dimethyl-1-(pyridin-2-yl)-3-vinyl-4,5,6,7-tetrahydroindol-4-one]
180 to 183 °C | CC1(C)CC(=O)c2c(Nc3ccccn3)cn(-c3ccccn3)c2C1 [Example 23, 6,6-Dimethyl-1-(pyridin-2-yl)-3-(pyridin-2-ylamino)-4,5,6,7-tetrahydroindol-4-one]
135 to 138 °C | CC1(C)CC(=O)c2c(Nc3ccccc3)cn(-c3ccccn3)c2C1 [Example 22, 6,6-Dimethyl-3-phenylamino-1-(pyridin-2-yl)-4,5,6,7-tetrahydroindol-4-one]
167 to 169 °C | CC1(C)CC(=O)c2c(-c3cncs3)cn(-c3ccccn3)c2C1 [Example 21, 6,6-Dimethyl-1-(pyridin-2-yl)-3-(thiazol-5-yl)-4,5,6,7-tetrahydroindol-4-one]
171 to 174 °C | CC1(C)CC(=O)c2c(-c3ccccn3)cn(-c3ccccn3)c2C1 [Example 17, 6,6-Dimethyl-1-(pyridin-2-yl)-3-(pyridin-2-yl)-4,5,6,7-tetrahydroindol-4-one]
111 to 113 °C | CC1(C)CC(=O)c2c(Cc3ccccc3)cn(-c3ccccn3)c2C1 [Example 19, 6,6-Dimethyl-3-phenylmethyl-1-(pyridin-2-yl)-4,5,6,7-tetrahydroindol-4-one]
